Legend:
[1] = Enhancement of the sweet impression of sucrose-containing yoghurt, rated 1-10 by a group of experts; format: in vivo; settings: 200 ppm in yoghurt (0.5% fat content), sucrose 5%
Experimental: In order to quantify the enhancement of a sweet impression by addition of the propenylphenyl glycosides to be used according to the invention, the sweetness of sucrose-containing yoghurt (0.5% fat content) and of samples containing the same amount of sucrose and in addition a specific concentration of the propenylphenyl glycosides of formula (I) to be used according to the invention was determined by a group of experts (rating 1 [extremely slightly sweet] to 10 [extremely sweet]). Evaluation was carried out by calculating the enhancement (in %) of the sweetness impression from the average values of the assessments of the yoghurts containing sucrose (a) or sucrose and propenylphenyl glycoside (b).

[2] = Low-fat yoghurts with reduced sugar, sensory duo test with 16 panellists; format: in vivo; settings: yoghurt 0.1% fat, 8% versus 10% sucrose; compound 1 0.015%, hesperetin 0.01%
Experimental: Comparison preparation with sugar (A) Comparison preparation with reduced sugar content […] Preparations according to the invention with reduced sugar content and compound 1 (C) Comparison preparation with reduced sugar content and hesperetin (D)
The ingredients were mixed and cooled at 5° C.

Compound	% Enhancement of the sweetness impression ([1]; (16/10), p < 0.05)	Sweetness impression (1-10) b) with ([1]; rating 1 extremely slightly sweet to 10 extremely sweet)	Compensation of the loss of sweetness as a result of sugar reduction [2]
C=CCc1ccc(O[C@@H]2O[C@H](CO)[C@@H](O)[C@H](O)[C@H]2O)cc1 [compound 1, 1-O-[4-(propen-2-enyl)phenyl]-D-glucopyranoside]	+24%	4.9 ± 1.4	
COc1ccc(C2CC(=O)c3c(O)cc(O)cc3O2)cc1O (stereo not drawn) [hesperetin, reference compound]			less good results
